Source: patent US7560536B2, “Morning glory-derived anticancer agents, and novel ipomoeassin compounds” (Virginia Tech Intellectual Properties, Inc., priority 2005, dated 2009)
Like-named read-outs stand apart in the source and are kept apart here.

System: A2780 human ovarian cancer cell line
Experiment: Cytotoxicity bioassay against the A2780 ovarian cancer cell line
Assay type: cell-based
Experimental: Cytotoxicity Bioassays. Cytotoxicity measurements were performed against the A2780 ovarian cancer cell line as previously described. The A2780 cell line is a drug-sensitive ovarian cancer cell line.

[1] = Homo sapiens, A2780, read-out: IC50 (concentration that inhibited 50% of the growth of the A2780 human ovarian cell line)

SMILES	IC50 [1]	IC50 (A2780 human ovarian cancer cell line, read-out: IC50 against A2780)
C/C=C(\C)C(=O)OC1C(O)C2OC(COC(=O)CCC(=O)CCCCCCC(CCCCC)OC3OC(C)C(OC(C)=O)C(O)C3O2)C1OC(=O)/C=C/c1ccccc1 [Compound 14, Hexadecanoic acid, 11-[[4-O-acetyl-6-deoxy-2-O-[3-O-[(2E)-2-methyl-1-oxo-2-butenyl]-4-O-[(2E)-1-oxo-3-phenyl-2-propenyl]-β-D-glucopyranosyl]-β-D-galactopyranosyl]oxy]-4-oxo-, intramol. 1,6″-ester, (11S)-]	36 nM	
C/C=C(\C)C(=O)OC1C(O)C2OC(COC(=O)CCC(=O)CCCCCC[C@H](CCC)OC3OC(C)C(OC(C)=O)C(O)C3O2)C1OC(=O)/C=C/c1ccccc1 (stereo partly drawn) [Compound 1, Tetradecanoic acid, 11-[[4-O-acetyl-6-deoxy-2-O-[3-O-[(2E)-2-methyl-1-oxo-2-butenyl]-4-O-[(2E)-1-oxo-3-phenyl-2-propenyl]-β-D-glucopyranosyl]-β-D-galactopyranosyl]oxy]-4-oxo-, intramol. 1,6″-ester, (11S)-]	500 nM	
C/C=C(\C)C(=O)OC1C(O)C2OC(COC(=O)CCC(=O)[C@@H](OC(C)=O)CCCCC[C@H](CCC)OC3OC(C)C(OC(C)=O)C(O)C3O2)C1OC(=O)/C=C/c1ccccc1 (stereo partly drawn) [Compound 4, Tetradecanoic acid, 11-[[4-O-acetyl-6-deoxy-2-O-[3-O-[(2E)-2-methyl-1-oxo-2-butenyl]-4-O-[(2E)-1-oxo-3-phenyl-2-propenyl]-β-D-glucopyranosyl]-β-D-galactopyranosyl]oxy]-5-(acetyloxy)-4-oxo-, intramol. 1,6″-ester, (5S,11S)-]	35 nM	35 nM
C/C=C(\C)C(=O)OC1C(OC(=O)/C=C/c2ccccc2)C2COC(=O)CCC(=O)[C@@H](OC(C)=O)CCCCC[C@H](CCC)OC3OC(C)C(OC(C)=O)C(OC(C)=O)C3OC(O2)C1OC(C)=O (stereo partly drawn) [Compound 7, 5,3′,2″-O-Triacetyl ipomoeassin C]	19100 nM	
C/C=C(\C)C(=O)OC1C(O)C2OC(COC(=O)CCC(=O)[C@@H](O)CCCCC[C@H](CCC)OC3OC(C)C(OC(C)=O)C(O)C3O2)C1OC(=O)/C=C/c1ccccc1 (stereo partly drawn) [Compound 3, Tetradecanoic acid, 11-[[4-O-acetyl-6-deoxy-2-O-[3-O-[(2E)-2-methyl-1-oxo-2-butenyl]-4-O-[(2E)-1-oxo-3-phenyl-2-propenyl]-β-D-glucopyranosyl]-β-D-galactopyranosyl]oxy]-5-hydroxy-4-oxo-, intramol. 1,6″-ester, (5S,11S)-]	2900 nM	
C/C=C(\C)C(=O)OC1C(O)C2OC(COC(=O)CCC(=O)[C@@H](OC(C)=O)CCCCC[C@H](CCC)OC3OC(C)C(O)C(O)C3O2)C1OC(=O)/C=C/c1ccccc1 (stereo partly drawn) [Compound 5, Tetradecanoic acid, 5-(acetyloxy)-11-[[6-deoxy-2-O-[3-O-[(2E)-2-methyl-1-oxo-2-butenyl]-4-O-[(2E)-1-oxo-3-phenyl-2-propenyl]-β-D-glucopyranosyl]-β-D-galactopyranosyl]oxy]-4-oxo-, intramol. 1,6″-ester, (5S,11S)-]	3300 nM	
C/C=C(\C)C(=O)OC1C(O)C2OC(COC(=O)CCC(=O)CCCCCC[C@H](CCC)OC3OC(C)C(O)C(O)C3O2)C1OC(=O)/C=C/c1ccccc1 (stereo partly drawn) [Compound 2, Tetradecanoic acid, 11-[[6-deoxy-2-O-[3-O-[(2E)-2-methyl-1-oxo-2-butenyl]-4-O-[(2E)-1-oxo-3-phenyl-2-propenyl]-β-D-glucopyranosyl]-β-D-galactopyranosyl]oxy]-4-oxo-, intramol. 1,6″-ester, (11S)-]	400 nM	
C/C=C(\C)C(=O)OC1C(OC(=O)/C=C/c2ccccc2)C2COC(=O)CCC(=O)CCCCCC[C@H](CCC)OC3OC(C)C(OC(C)=O)C(OC(C)=O)C3OC(O2)C1OC(C)=O (stereo partly drawn) [Compound 6, 3′,2″-O-Diacetyl ipomoeassin A]	15800 nM	
